Measurements as given in the PolyMetriX glass transition set.
± gives the standard deviation of the reports.

| Compound | glass transition temperature |
| --- | --- |
| *CC(*)Cc1cccc(C)c1 (repeat unit) | 40.00 °C |
| *C(=O)Nc1ccc(Oc2ccc(NC(=O)c3ccc4c(c3)C(=O)N(c3ccc(Oc5ccc(C6(c7ccc(Oc8ccc(N9C(=O)c%10ccc(*)cc%10C9=O)cc8)cc7)CC7CC6C6CCCC76)cc5)cc3)C4=O)cc2)cc1 (repeat unit) | 250.00 °C |
| *C(*)C(=O)OC1CCCCC1 (repeat unit) | 140.00 °C |
| *C(=O)Nc1ccc(Oc2ccc(NC(=O)c3ccc4c(c3)C(=O)N(c3ccc(Oc5ccc(N6C(=O)c7ccc(*)cc7C6=O)cc5-c5ccccc5)c(-c5ccccc5)c3)C4=O)cc2-c2ccccc2)c(-c2ccccc2)c1 (repeat unit) | 369.00 °C |
| *C#Cc1cccc(C#C[SiH2]*)c1 (repeat unit) | 72.00 °C |
| *CCc1ccc(*)c(C)c1 (repeat unit) [Poly(methyl-p-xylylene) ] | 55 ± 1.9 °C |
| *CC(CS(=O)(=O)CCCCC)O* (repeat unit) | 39.00 °C |
| *c1ccc2c(c1)C(=O)N(c1cccc(C(=O)Nc3ccc(Oc4cccc(Oc5ccc(NC(=O)c6cccc(N7C(=O)c8ccc(C(*)(C(F)(F)F)C(F)(F)F)cc8C7=O)c6)cc5)c4)cc3)c1)C2=O (repeat unit) | 264.00 °C |
| *CC(C[N-][N+]#N)O* (repeat unit) | -35.00 °C |
| *Oc1ccc(NC(=C(C#N)C#N)c2ccc(-c3ccc(-c4ccc(C(Nc5ccc(*)cc5)=C(C#N)C#N)cc4)cc3)cc2)cc1 (repeat unit) | 240.00 °C |
| *CCCCCCOP(=O)(/N=N/c1ccc(COC(=O)c2cc(C(=O)OCc3ccc(/N=N/P(=O)(O*)OC)cc3)cc(C(C)(C)C)c2)cc1)OC (repeat unit) | 62.00 °C |
| *CC(*)(C(=O)OC)c1ccccc1 (repeat unit) | 121.00 °C |
| *c1ccc(C(c2ccc(N3C(=O)c4ccc(OCCN(CCOc5ccc6c(c5)C(=O)N(*)C6=O)c5ccc(/C=C/c6ccc([N+](=O)[O-])cc6)cc5)cc4C3=O)cc2)(C(F)(F)F)C(F)(F)F)cc1 (repeat unit) | 180.70 °C |
| *CC(*)c1ccc(O)c(OC)c1 (repeat unit) | 142.00 °C |
| *CCCCCCCCCCSS* (repeat unit) | -65.00 °C |
| *C/C=C(\C)C(C)S(*)(=O)=O (repeat unit) | 73.00 °C |
| *c1cc(Br)c(Oc2c(Br)cc(N3C(=O)c4ccc(-c5ccc6c(c5)C(=O)N(*)C6=O)cc4C3=O)cc2Br)c(Br)c1 (repeat unit) | 287.00 °C |
| *CC(*)(C)C(=O)OCCC (repeat unit) [Poly(n-propyl methacrylate) ] | 35 ± 5.4 °C |
| *CC(*)c1cccc(Br)c1 (repeat unit) | 102.00 °C |
| *CC(OO*)c1ccc(C(C)(C)C)cc1 (repeat unit) | 19.90 °C |
| *C(=O)Nc1ccc(Cc2ccc(NC(=O)c3ccc4c(c3)C(=O)N(c3ccc(/N=N/c5ccc(C)cc5)c(N5C(=O)c6ccc(*)cc6C5=O)c3)C4=O)c(C)c2)cc1C (repeat unit) | 257.00 °C |
| *CC(*)(CCC(C)C(=O)OC)C(=O)OC (repeat unit) | 34.00 °C |
| *CC(*)OCC(C)C (repeat unit) [Poly(isobutyl vinyl ether)] | -22.08 ± 2.5 °C |
| *c1ccc(-c2cc(CCCCCCCC)c(-c3ccc(-c4ccc(-c5sc(-c6ccc([Si](C)(C)[Si](C)(C)[Si](C)(C)[Si](*)(C)C)s6)cc5CCCCCCCC)s4)s3)s2)s1 (repeat unit) | 6.00 °C |
| *Oc1ccc(NC(=O)c2ccc(Oc3ccc(C(C)(C)c4cccc(C(C)(C)c5ccc(Oc6ccc(C(=O)Nc7ccc(Oc8ccc(C(c9ccc(*)cc9)(C(F)(F)F)C(F)(F)F)cc8)cc7)cc6)cc5)c4)cc3)cc2)cc1 (repeat unit) | 154.00 °C |
| *c1ccc(Sc2ccc(Sc3ccc(N4C(=O)c5ccc(Sc6ccc(Sc7ccc(Sc8ccc9c(c8)C(=O)N(*)C9=O)cc7)cc6)cc5C4=O)cc3)cc2)cc1 (repeat unit) | 190.8 °C |
| *C1CC(*)(C#N)C1 (repeat unit) | 220.00 °C |
| *c1ccc2c(c1)C(=O)N(c1ccc(C(=O)Nc3ccc(C(c4ccc(NC(=O)c5ccc(N6C(=O)c7ccc(C(*)(C(F)(F)F)C(F)(F)F)cc7C6=O)c(C)c5)cc4)(C(F)(F)F)C(F)(F)F)cc3)cc1C)C2=O (repeat unit) | 344.00 °C |
| *c1ccc(Oc2ccc(S(=O)(=O)c3ccc(Oc4ccc(-c5c6c(c(*)c7ccccc57)C(=O)N(c5ccccc5)C6=O)cc4)cc3)cc2)cc1 (repeat unit) | 310.00 °C |

Results, then the compound that gave them:

| glass transition temperature | Compound |
| --- | --- |
| 147.00 °C | */C=C/c1ccc(-c2nnc(-c3ccc(/C=C/c4ccc5c(c4)c4cc(*)ccc4n5CCCCCCCC)cc3)n2-c2ccccc2)cc1 (repeat unit) |
| 25.00 °C | *O[Si](*)(C)CCCCCCCCCCC(=O)Oc1ccc(C(=O)OCCOc2ccc(C(=O)OC3CCC4(C)C(=CCC5C4CCC4(C)C(C(C)CCCC(C)C)CCC54)C3)cc2)cc1 (repeat unit) |
| 183.00 °C | */C(=C(\C#N)c1ccc(C(=O)OC2CCN(*)CC2)cc1)c1ccc(OC)cc1 (repeat unit) |
| 210.00 °C | *Oc1ccc(C2(c3ccc(OC(=O)c4ccc(C(*)=O)cc4)cc3)CCC(C(C)(C)C)CC2)cc1 (repeat unit) |
| 95.00 °C | *Oc1ccc(-c2ccc(OC(=O)CCCCCCCCCCCCC(*)=O)cc2)cc1 (repeat unit) |
| 165.00 °C | *C1C(=O)N(c2ccc(O[Si](CC)(CC)CC)cc2)C(=O)C1* (repeat unit) |
| 128.00 °C | *CC(*)C(=O)Nc1ccc2c(c1)C(=O)c1ccccc1C2=O (repeat unit) |
| 410.00 °C | *c1ccc(-c2ccc(-c3nc4cc(Oc5ccc6nc(-c7ccccc7)c(*)nc6c5)ccc4nc3-c3ccccc3)cc2)cc1 (repeat unit) |
| 233.00 °C | *c1ccc(-c2ccc(NC(=O)c3cccc(C(=O)Nc4ccc(-c5ccc(N6C(=O)c7ccc(Oc8ccc9c(c8)C(=O)N(*)C9=O)cc7C6=O)cc5)cc4)c3)cc2)cc1 (repeat unit) |
| 130.00 °C | *CCN(*)C(=O)c1ccc2ccccc2c1 (repeat unit) |
| 107.00 °C | *CC(*)(C)C(=O)OCCN(C)c1ccc(/C=C/c2ccc([N+](=O)[O-])cc2)cc1 (repeat unit) |
| 76.80 °C | *Oc1ccc(SSc2ccc(*)cc2)cc1 (repeat unit) |
| 215.00 °C | *Oc1ccc(Nc2ccc(C(=O)c3ccc(C(=O)c4ccc(Nc5ccc(*)cc5)cc4)cc3)cc2)cc1 (repeat unit) |
| -1.00 °C | *CCCCCCCCCCCCC(c1ccc(O)cc1)C(*)c1ccc(O)cc1C (repeat unit) |
| 213.20 °C | *Nc1ccc(NC(=O)c2cc(C(=O)c3ccc(C(=O)O)c(C(*)=O)c3)ccc2C(=O)O)cc1 (repeat unit) |
| 58.30 °C | *c1ccc(-c2sc(-c3ccc(-c4cc(CCCC)c(*)s4)cc3)cc2CCCC)cc1 (repeat unit) |
| 130.00 °C | *O[Si](c1ccccc1)(c1ccccc1)c1ccc([Si](*)(c2ccccc2)c2ccccc2)cc1 (repeat unit) |
| 224.00 °C | *c1cccc(N2C(=O)c3ccc(Oc4ccccc4Oc4ccc5c(c4)C(=O)N(*)C5=O)cc3C2=O)c1 (repeat unit) |
| 120.00 °C | *CCCC1(CCCNC(=O)CCCCC(=O)N*)c2ccccc2-c2ccccc21 (repeat unit) |

| glass transition temperature | Compound |
| --- | --- |
| 159.00 °C | *Cc1cccc(CNC(=O)c2ccccc2-c2ccccc2C(=O)N*)c1 (repeat unit) |
| 206.20 °C | *CC(*)c1cc[n+](CCCCCCCC)cc1 (repeat unit) |
| 341.00 °C | *C(=O)Nc1ccc(NC(=O)c2ccc3c(c2)C(=O)N(c2cccc(N4C(=O)c5ccc(*)cc5C4=O)c2)C3=O)cc1 (repeat unit) |
| 6.00 °C | *Oc1ccc(CC(NC(=O)CCc2ccc(OC(=O)CCCCCCC(*)=O)cc2)C(=O)OCCOCCOCC)cc1 (repeat unit) |
| 196.00 °C | *Oc1ccc(C(c2ccc(OC(*)=O)cc2)C2C3CCC(C3)C2c2ccccc2)cc1 (repeat unit) |
| 79.00 °C | *CC(*)(C)C(=O)OCCCCCCOc1ccc(/N=N/c2ccc(OCCCC)cc2)cc1 (repeat unit) |
| 353.50 °C | *c1ccc2c(c1)C(=O)N(c1cccc(N3C(=O)c4ccc(C(*)(C(F)(F)F)C(F)(F)F)cc4C3=O)c1C)C2=O (repeat unit) |
| 160.00 °C | *Oc1ccc(C(C)(C)c2ccc(Oc3ccc(C(=O)c4ccc(C(=O)c5ccc(*)cc5)cc4)cc3)cc2)cc1 (repeat unit) |
| 51.00 °C | */C=C/C1CC(*)C(C(=O)OCCCCCCCCOc2ccc(/C=C/c3ccc([N+](=O)[O-])cc3)cc2)C1 (repeat unit) |
| 208.00 °C | *c1cccc(Cc2cccc(N3C(=O)c4ccc([Si](C)(C)O[Si](C)(C)O[Si](C)(C)c5ccc6c(c5)C(=O)N(*)C6=O)cc4C3=O)c2)c1 (repeat unit) |
| 181.00 °C | *Oc1ccc(C(C)(c2ccccc2)c2ccc(OC(*)=S)cc2)cc1 (repeat unit) |
| 202.00 °C | *Oc1ccc(C(C)(c2ccccc2)c2ccc(OC(=O)c3cccc(C(*)=O)c3)cc2)cc1 (repeat unit) |
| 56.00 °C | *CCCCCCOC(=O)NCc1ccc(CNC(=O)O*)cc1 (repeat unit) |
| 57.80 °C | *CC(*)(C)C(=O)OCCC1CC[N+](C)(CCCCCCOc2ccc(/N=N/c3ccc([N+](=O)[O-])cc3)cc2)CC1 (repeat unit) |
| 132.50 °C | *CCCCCCNC(=O)c1ccc(C(=O)N*)cc1 (repeat unit) |
| 60.00 °C | *CCN(CCOC(=O)c1cccc(C(=O)O*)c1)c1ccccc1 (repeat unit) |
| 20.00 °C | *CC(*)(C)C(=O)OCCOCCOCCOCCOc1ccc(/N=N/c2ccc(C#N)cc2)cc1 (repeat unit) |
| 75.00 °C | *CC(*)(C)C(=O)OCCCCCCCCOc1ccc(C(=O)Oc2ccc(C(=O)/C=C/c3c(C)c4ccccc4n3C)cc2)cc1 (repeat unit) |
